Source: ChEMBL document CHEMBL1201862, “PubChem BioAssay data set” (2004)
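Assay format: 96-well plates, 48-hour exposure. Abbreviation: GI50, concentration required for 50% inhibition of growth.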 Active and inactive are the calls of the source. Cut-off read from the data, not from the text of the source: active = GI50 up to about 1.1 µM and inactive = higher.

Columns and labels:
Assay in all cases: NCI anticancer screen, dose series, 48 h
COLO 205 = tested on: COLO 205
K562 = tested on: K562
LOX IMVI = tested on: LOX IMVI
SF-268 = tested on: SF-268
RXF 393 = tested on: RXF 393
KM12 = tested on: KM12
EKVX = tested on: EKVX
M14 = tested on: M14
HCT-116 = tested on: HCT-116
HT-29 = tested on: HT-29
U-251 = tested on: U-251
T47D = tested on: T47D
HOP-62 = tested on: HOP-62
SNB-19 = tested on: SNB-19
CAKI-1 = tested on: CAKI-1
OVCAR-3 = tested on: OVCAR-3
MDA-N = tested on: MDA-N
MDA-MB-231 = tested on: MDA-MB-231
HL-60 = tested on: HL-60

Measured: GI50

CC(C)(CO)N1CCN(C(S)=Nc2ccccc2)CC1
inactive: COLO 205 > 100 µM | K562 64.3 µM | LOX IMVI > 100 µM | SF-268 > 100 µM | RXF 393 > 100 µM | KM12 > 100 µM | EKVX > 100 µM | M14 > 100 µM | HCT-116 > 100 µM | HT-29 > 100 µM | U-251 > 100 µM | T47D > 100 µM | HOP-62 > 100 µM | SNB-19 > 100 µM | CAKI-1 > 100 µM | OVCAR-3 > 100 µM | MDA-N > 100 µM | MDA-MB-231 > 100 µM

BrCCCCCOc1ccc(-c2c3ccccc3c(-c3ccc(OCCCCCBr)cc3)c3ccccc23)cc1
inactive: COLO 205 > 100 µM | K562 > 100 µM | SF-268 > 100 µM | RXF 393 > 100 µM | HL-60 > 100 µM | KM12 > 100 µM | EKVX > 100 µM | M14 > 100 µM | HCT-116 > 100 µM | HT-29 > 100 µM | U-251 > 100 µM | T47D > 100 µM | HOP-62 > 100 µM | SNB-19 > 100 µM | CAKI-1 > 100 µM | MDA-N > 100 µM | MDA-MB-231 > 100 µM

COC1(OC)N=C(N)C2(C#N)C3(C(=O)N(C(C)C)N=C3C)C12C#N (stereo unspecified)
inactive: COLO 205 > 100 µM | K562 > 100 µM | SF-268 > 100 µM | RXF 393 > 100 µM | HL-60 > 100 µM | KM12 > 100 µM | EKVX > 100 µM | M14 > 100 µM | HCT-116 > 100 µM | HT-29 > 100 µM | U-251 > 100 µM | T47D > 100 µM | HOP-62 > 100 µM | SNB-19 > 100 µM | CAKI-1 > 100 µM | OVCAR-3 49.7 µM | MDA-N > 100 µM | MDA-MB-231 > 100 µM

CC(=O)CC1CCC(=O)CCC(=O)OC(CC(C)=O)CCC(=O)CCC(=O)O1 (stereo unspecified)
inactive: COLO 205 > 100 µM | K562 > 100 µM | SF-268 > 100 µM | RXF 393 > 100 µM | HL-60 > 100 µM | KM12 > 100 µM | EKVX > 100 µM | M14 > 100 µM | HCT-116 > 100 µM | HT-29 > 100 µM | U-251 > 100 µM | T47D > 100 µM | HOP-62 > 100 µM | SNB-19 > 100 µM | OVCAR-3 > 100 µM | MDA-N > 100 µM | MDA-MB-231 > 100 µM

Cc1ccc(/N=N/C(=O)NNc2ccc(C)c([N+](=O)[O-])c2)cc1[N+](=O)[O-]
inactive: K562 11.9 µM | LOX IMVI 17.3 µM | SF-268 28.6 µM | HL-60 17.9 µM | M14 40 µM | HCT-116 23.7 µM | HT-29 53.2 µM | U-251 29.9 µM | T47D 4.45 µM | HOP-62 20.8 µM | SNB-19 36.3 µM | CAKI-1 18.8 µM | OVCAR-3 28.1 µM | MDA-N 32.7 µM | MDA-MB-231 36.6 µM

O=C(O)c1nc2cc(C(F)(F)F)ccc2[nH]c1=O
inactive: COLO 205 > 100 µM | K562 > 100 µM | LOX IMVI > 100 µM | SF-268 > 100 µM | HL-60 > 100 µM | KM12 > 100 µM | EKVX > 100 µM | M14 > 100 µM | HCT-116 > 100 µM | HT-29 > 100 µM | U-251 > 100 µM | T47D > 100 µM | HOP-62 > 100 µM | SNB-19 > 100 µM | CAKI-1 > 100 µM | OVCAR-3 > 100 µM | MDA-N > 100 µM | MDA-MB-231 > 100 µM

c1ccc(CNc2nncc3[nH]cnc23)cc1
inactive: COLO 205 > 100 µM | K562 > 100 µM | LOX IMVI 88.9 µM | HL-60 > 100 µM | KM12 > 100 µM | EKVX > 100 µM | M14 > 100 µM | HCT-116 > 100 µM | HT-29 > 100 µM | U-251 > 100 µM | T47D > 100 µM | HOP-62 > 100 µM | CAKI-1 > 100 µM | OVCAR-3 > 100 µM | MDA-N > 100 µM | MDA-MB-231 > 100 µM

CC1C(OS(=O)(=O)c2ccc3nc(S)sc3c2)CC2C3(C)CCC2(C(C)C(=O)O)C(O)C13 (stereo unspecified)
inactive: COLO 205 20.7 µM | K562 26.2 µM | SF-268 27.4 µM | RXF 393 21.7 µM | HL-60 23.7 µM | KM12 19.9 µM | EKVX 31.3 µM | M14 32.4 µM | HCT-116 13.6 µM | HT-29 17.5 µM | U-251 16.2 µM | T47D 21.2 µM | HOP-62 29.1 µM | SNB-19 54.1 µM | CAKI-1 22 µM | OVCAR-3 14.5 µM | MDA-N 22.4 µM | MDA-MB-231 21.2 µM

CCOC(=O)C(=O)C(CCC(=O)c1ccc2ccccc2c1O)C(=O)OCC (stereo unspecified)
inactive: COLO 205 > 100 µM | K562 > 100 µM | LOX IMVI > 100 µM | SF-268 > 100 µM | RXF 393 > 100 µM | HL-60 > 100 µM | KM12 > 100 µM | EKVX > 100 µM | M14 > 100 µM | HCT-116 > 100 µM | HT-29 > 100 µM | U-251 > 100 µM | T47D > 100 µM | SNB-19 > 100 µM | CAKI-1 > 100 µM | OVCAR-3 > 100 µM | MDA-N > 100 µM | MDA-MB-231 > 100 µM

OCCSCCCSCCO
inactive: COLO 205 > 100 µM | K562 > 100 µM | LOX IMVI > 100 µM | SF-268 > 100 µM | HL-60 30.7 µM | KM12 > 100 µM | EKVX > 100 µM | M14 > 100 µM | HCT-116 > 100 µM | HT-29 > 100 µM | U-251 > 100 µM | T47D > 100 µM | HOP-62 > 100 µM | SNB-19 > 100 µM | OVCAR-3 > 100 µM | MDA-N > 100 µM | MDA-MB-231 > 100 µM

CCCCC1C=Cn2c(=O)oc3c(OC(C)C)c(OC(C)C)c(O)c1c32 (stereo unspecified)
inactive: COLO 205 16.3 µM | LOX IMVI 14.3 µM | SF-268 18.5 µM | HL-60 4.56 µM | KM12 14.4 µM | EKVX 29.9 µM | M14 22.3 µM | HCT-116 17.4 µM | HT-29 14.6 µM | U-251 16 µM | T47D 4.44 µM | HOP-62 20.7 µM | SNB-19 18.2 µM | CAKI-1 15.1 µM | OVCAR-3 16.4 µM | MDA-N 20.9 µM | MDA-MB-231 14.1 µM

COC(=O)CNC(=O)c1cc(C)cc2c1Oc1c(cc(C)cc1C(=O)NCC(=O)OC)S2
inactive: COLO 205 28.4 µM | K562 > 100 µM | LOX IMVI 96.4 µM | SF-268 99.8 µM | RXF 393 29.6 µM | KM12 81.7 µM | EKVX > 100 µM | M14 42.6 µM | HCT-116 > 100 µM | HT-29 47.1 µM | U-251 > 100 µM | T47D > 100 µM | HOP-62 > 100 µM | SNB-19 > 100 µM | CAKI-1 > 100 µM | OVCAR-3 38.5 µM | MDA-N > 100 µM | MDA-MB-231 > 100 µM

COC(=O)CC1c2ccccc2N2C(=O)Cc3c([nH]c4ccccc34)C12 (stereo unspecified)
inactive: COLO 205 > 100 µM | K562 35.8 µM | LOX IMVI > 100 µM | SF-268 > 100 µM | RXF 393 > 100 µM | KM12 > 100 µM | EKVX > 100 µM | M14 > 100 µM | HCT-116 > 100 µM | HT-29 > 100 µM | U-251 > 100 µM | T47D > 100 µM | HOP-62 36.5 µM | SNB-19 > 100 µM | CAKI-1 > 100 µM | OVCAR-3 > 100 µM | MDA-N > 100 µM | MDA-MB-231 > 100 µM

O=[N+]([O-])c1cccc(-c2ncc3c(n2)-c2ccccc2C3)c1
inactive: COLO 205 > 100 µM | K562 > 100 µM | SF-268 51.6 µM | RXF 393 95.1 µM | HL-60 > 100 µM | KM12 > 100 µM | EKVX 94.4 µM | M14 > 100 µM | HCT-116 > 100 µM | HT-29 > 100 µM | U-251 93.8 µM | T47D > 100 µM | SNB-19 30.3 µM | CAKI-1 42.7 µM | MDA-N > 100 µM | MDA-MB-231 20.5 µM

CCOC(=O)P(=O)(O)c1ccc(N(C)Cc2ccccc2)cc1
inactive: COLO 205 > 100 µM | K562 > 100 µM | LOX IMVI > 100 µM | SF-268 > 100 µM | HL-60 > 100 µM | KM12 > 100 µM | EKVX > 100 µM | M14 > 100 µM | HCT-116 > 100 µM | HT-29 > 100 µM | U-251 > 100 µM | T47D > 100 µM | HOP-62 > 100 µM | SNB-19 > 100 µM | CAKI-1 > 100 µM | OVCAR-3 > 100 µM | MDA-N > 100 µM | MDA-MB-231 > 100 µM

CC(=O)O[C@H]1C(=O)[C@@]2(C)[C@H]([C@H](OC(=O)c3cccc(C(F)(F)F)c3)[C@]3(O)C[C@H](OC(=O)[C@H](O)[C@@H](NC(=O)c4ccccc4)c4ccccc4)C(C)=C1C3(C)C)[C@]1(OC(C)=O)CO[C@@H]1C[C@@H]2O
active: COLO 205 < 0.0025 µM | K562 < 0.0025 µM | SF-268 0.223 µM | RXF 393 0.0222 µM | HL-60 < 0.0025 µM | KM12 < 0.0025 µM | M14 0.00306 µM | HCT-116 < 0.0025 µM | HT-29 < 0.0025 µM | U-251 < 0.0025 µM | T47D 0.00455 µM | HOP-62 0.0162 µM | SNB-19 0.0889 µM | CAKI-1 0.906 µM | OVCAR-3 < 0.0025 µM | MDA-N < 0.0025 µM | MDA-MB-231 0.0361 µM
